Results taken from patent publication US6593306B1, “Methods for modulation and inhibition of telomerase” (Board of Regents, The University of Texas Systems, priority 1995, dated 2003).
Values joined by “and” are separate entries in the source; they are usually repeats but may differ in a detail not shown here. Equal entries are not always repeated.

Assays:
HeLa cell telomerase = target: T1, HeLa cell telomerase (Homo sapiens, UniProt O14746); experiment: HeLa cell telomerase assay; type: biochemical; details: for IC50: HeLa cell telomerase
T1 construct: endogenous in cells; host or cells: HeLa cells (human cervical tumor)

MCF-7 = experiment: Growth inhibition (MTT), MCF-7; type: cell-based; details: Homo sapiens, MCF7, 144 h, 6 days
Protocol: (§1) Exponentially growing cells (1-2×10^3 cells, unless specified otherwise) in 0.1 ml medium were seeded on day 0 in a 96-well microtiter plate. On day 1, 0.1 ml aliquots of medium containing graded concentrations of test analogs were added in duplicate to the cell plates. After incubation at 37° C. in a humidified incubator for 6 days, the plates were centrifuged briefly and 100 μl of the growth medium was removed. Cell cultures were incubated with 50 μl of 3-(4,5-dimethylthiazol-2-yl)-2,5-diphenyl-tetrazolium bromide, (MTT) at a concentration of 1 mg/ml in Dulbecco's phosphate buffered saline (PBS)) for 4 hr at 37° C. The resulting purple formazan precipitate was solubilized with 200 μl of 0.04 N HCl in isopropyl alcohol. Absorbance was monitored in a BioRad Model 3550 Microplate Reader at a test wavelength of 570 nm and a reference wavelength of 630 nm. The absorbance was transferred to a PC 486 computer. The IC50 values were determined by a computer program (EZ-ED50) that fits all the data to the following four-parameter logistic equation: [formula]
(§2) where Amax is the absorbance of control cells, Amin is the absorbance of cells in the presence of highest agent concentration, Y is the observed absorbance, X is the agent concentration, IC50 is the concentration of agent that inhibits the cell growth by 50% of control cells (based on the absorbance) and n is the slope of the curve.
(§3) This is due to the extracellular dephosphorylation of the mono-, di-, or triphosphates by […] or 5′-nucleotidase back to the nucleoside. With this in mind, the inventors used only nucleosides rather than nucleoside triphosphates in these studies. Cultured tumor cells were incubated with selected nucleosides at graded concentrations for 6 days and the growth inhibition was determined by the standard MTT assay.

MDA-231 = experiment: Growth inhibition (MTT), MDA-231; type: cell-based; details: Homo sapiens, MDA-MB-231, 144 h, 6 days
Protocol: as §1, §2, §3

BT-20 = experiment: Growth inhibition (MTT), BT-20; type: cell-based; details: Homo sapiens, BT-20, 144 h, 6 days
Protocol: as §1, §2, §3

DU145 = experiment: Growth inhibition (MTT), DU145; type: cell-based; details: Homo sapiens, DU-145, 144 h, 6 days
Protocol: as §1, §2, §3

PC3 = experiment: Growth inhibition (MTT), PC3; type: cell-based; details: Homo sapiens, PC-3, 144 h, 6 days
Protocol: as §1, §2, §3

SKBR3 = experiment: Growth inhibition (MTT), SKBR3; type: cell-based; details: Homo sapiens, SK-BR-3, 144 h, 6 days
Protocol: as §1, §2, §3

Raji = experiment: Growth inhibition (MTT), Raji; type: cell-based; details: Homo sapiens, 144 h, 6 days
Protocol: as §1, §2, §3

human cancer telomerase = target: T2, human cancer telomerase (Homo sapiens, UniProt O14746); experiment: Nucleoside triphosphate as telomerase substrate, dGTP replaced in modified reaction; type: biochemical
T2 construct: endogenous in cells; host or cells: human cancer cells

[1] = target: T3, human 293 cell telomerase (Homo sapiens, UniProt O14746); experiment: Conventional telomerase assay (32P-dGTP as radiolabel substrate); type: biochemical
T3 construct: with 20 μl of S100 enzyme extract; endogenous in cells; host or cells: 293 cells (transformed human embryonic kidney), S100 extract
Protocol: (§4) Telomerase was prepared from transformed human embryonic kidney 293 cell line. Human embryonic kidney 293 cells were grown in Joklik's modified MEM niedium (Sigma, St Louis, Mo.) supplemented with 5% fetal bovine serum at 37° C. in a humidified atmosphere with 5% CO2. The cells were subcultured at 1-2×10^5 cells/ml twice a week. When the cells grew to approximately 1×10^6 cells/ml, the cells (˜2×10^9 cells) were centrifuged and transferred into polypropylene centrifuge (50 ml) tubes and kept on ice. The cells were then centrifuged in a (Beckman GS-6R) centrifuge at 1200 RPM for 10 minutes at 4° C., and resuspended in PBS. The washed cells were resuspended in 15 ml Hypobuffer Mix (10 mM HEPES, pH 8.0, 3 mM KCl, 1 mM MgCl2, 1 mM dithiothreitol, 1 μM leupeptin, 0.1 mM PMSF, 10 μM pepstatin, 0.83 μg/ml chymostatin, 0.83 μg/ml antipain, and 43.2 units/ml RNase Guard) and centrifuged. The cell pellets were resuspended in 0.75×volumes Hypobuffer [Hypobuffer Mix+40 units/ml RNase Guard (Pharmacia, N.J.) to allow the cells to swell. The cell suspensions were homogenized to allow the telomerase to “leak” into the cytosolic fraction. The lysate was then poured into new, autoclaved, 3 ml polyallomer ultracentrifuge tubes and centrifuged at 100,000×g for 1 hour at 4° C. A top lipid layer was carefully removed and discarded, and the supernatant was collected. 1/50 of the volume of 5 M NaCl was added to the clear supernatant fluid to achieve a final concentration of 0.1 M. Sterile glycerol was added until the final glycerol concentration was 20%. The enzyme solution was aliquoted into Eppendorf tubes and quickly frozen in liquid nitrogen and stored at −70° C.
The assay is based on the ability of the telomerase enzyme in the S100 fractions to recognize an 18-base DNA primer with the DNA sequence (TTAGGG)3. DNA polymerization initiates from the 3′-OH group of the oligonucleotide. By reading from its complementary internal RNA template, telomerase adds a repeated set of 5′-TTAGGG-3′ to the original 18-base primer. Non-synchronous “starts” and “terminations” among the different enzyme complexes result in a degenerative set of different length DNA primers occurring in 6-base increments. Incorporation of [α-^32P]dGTP at the guanine positions of the 5′-TTAGGG-3′ sequence allows the newly synthesized DNA fragments to be visualized by autoradiography. The resulting image forms the characteristic “ladder” structure that is used to identify telomerase activity. The images are scanned using a phosphoimager or laser densitometer (Molecular Dynamics, Sunnyvale, Calif.). Comparisons of the total volumes under the corresponding peaks are used to quantitate the total amount of [α-^32P] incorporated in the primer extension reaction.
The telomerase assay was initiated by mixing 20 μl of 2×reaction mix (100 mM Tris-OAc, pH 8.5, 100 mM KOAc, 10 mM β-mercaptoethanol, 2 mM spermidine, 2 mM MgCl2, 2 mM dATP, 2 mM dTTP, 2 μM oligo primer, potential inhibitors of interest at the appropriate concentration, and 50 μCi [α^32-P]dGTP) with 20 μl of S100 enzyme extract. The reaction mixture was then incubated at 30° C. for 1 hour. The reaction was stopped by incubating sequentially with 50 μl of the stop solution (10 mM Tris pH 7.5, 20 mM EDTA, 0.1 mg/ml RNase A) and 50 μl of deproteinase solution (10 mM Tris pH 7.5, 0.5% SDS, 0.3 mg/ml Proteinase K). The mixture was extracted with 50% phenol/50% chloroform (v/v). The DNA was then precipitated by adding 2.5×volumes of cold EtOH and letting it stand overnight at −70° C. The DNAs were separated on an 8% polyacrylamide/7M urea denaturing gel at 1600 V for 1.5 hours. The gel was dried and exposed to Kodak XAR-5 film to gel in −70° C. Typical autoradiographic exposures required 3-14 days.

[2] = target: T3, human 293 cell telomerase; experiment: Modified telomerase assay (32P-dATP as radiolabeled substrate); type: biochemical
Protocol: as §4
In the conventional telomerase assay, the concentrations of both non-radiolabeled nucleotides, dATP and dTTP, are 1 mM, and the concentration of the radiolabeled [^32P]dGTP is 1.56 μM. Because of the high concentration of dATP and dTTP, the standard assay may not be suitable for determining the potential telomerase inhibition of any “Adenine or Thymine” analogs. […] All other chemicals and reaction conditions are identical to the conventional assay.

human telomerase = target: T4, human telomerase (Homo sapiens, UniProt O14746); experiment: Cell-free telomerase inhibition, conventional or modified assay not stated; type: biochemical
T4 construct: telomerase in S100 extracts of transformed human fetal kidney tumor 293 cells (a processive telomerase); endogenous in cells; host or cells: human cells, (S100 extract)
Protocol: Selected nucleoside triphosphates were tested in one or both of the “conventional” or “modified” telomerase assays described in Methods using the human processive and the CHO non-processive telomerases. Initially, three chain-terminators were selected: 2′,3′-dideoxythymidine triphosphate (ddTTP), 3′-fluoro-2′,3′-dideoxythymidine triphosphate (F-ddTTP), and 3′-azido-2′-, 3′-dideoxythymidine triphosphate (AZ-ddTTP) as prototype agents to investigate whether they could inhibit telomerase activity. The three compounds are dTTP analogs without a 3′-OH group for subsequent chain elongation. They may either incorporate into the telomere sequence and terminate further chain elongation or compete directly with dTTP for the substrate binding site in the telomerase reaction. In either case, telomerase activity is inhibited.

[3] = tested on: transformed human embryonic kidney 293 cells; experiment: Growth inhibition (MTT), 293 cells; type: cell-based; details: HEK293, 144 h, 6 days
Protocol: as §1, §2, §3

[4] = tested on: human colon carcinoma HT29 cells; experiment: Growth inhibition (MTT), HT29 cells; type: cell-based; details: HT-29, 144 h, 6 days
Protocol: as §1, §2, §3

T1 sequence (O14746 whole entry): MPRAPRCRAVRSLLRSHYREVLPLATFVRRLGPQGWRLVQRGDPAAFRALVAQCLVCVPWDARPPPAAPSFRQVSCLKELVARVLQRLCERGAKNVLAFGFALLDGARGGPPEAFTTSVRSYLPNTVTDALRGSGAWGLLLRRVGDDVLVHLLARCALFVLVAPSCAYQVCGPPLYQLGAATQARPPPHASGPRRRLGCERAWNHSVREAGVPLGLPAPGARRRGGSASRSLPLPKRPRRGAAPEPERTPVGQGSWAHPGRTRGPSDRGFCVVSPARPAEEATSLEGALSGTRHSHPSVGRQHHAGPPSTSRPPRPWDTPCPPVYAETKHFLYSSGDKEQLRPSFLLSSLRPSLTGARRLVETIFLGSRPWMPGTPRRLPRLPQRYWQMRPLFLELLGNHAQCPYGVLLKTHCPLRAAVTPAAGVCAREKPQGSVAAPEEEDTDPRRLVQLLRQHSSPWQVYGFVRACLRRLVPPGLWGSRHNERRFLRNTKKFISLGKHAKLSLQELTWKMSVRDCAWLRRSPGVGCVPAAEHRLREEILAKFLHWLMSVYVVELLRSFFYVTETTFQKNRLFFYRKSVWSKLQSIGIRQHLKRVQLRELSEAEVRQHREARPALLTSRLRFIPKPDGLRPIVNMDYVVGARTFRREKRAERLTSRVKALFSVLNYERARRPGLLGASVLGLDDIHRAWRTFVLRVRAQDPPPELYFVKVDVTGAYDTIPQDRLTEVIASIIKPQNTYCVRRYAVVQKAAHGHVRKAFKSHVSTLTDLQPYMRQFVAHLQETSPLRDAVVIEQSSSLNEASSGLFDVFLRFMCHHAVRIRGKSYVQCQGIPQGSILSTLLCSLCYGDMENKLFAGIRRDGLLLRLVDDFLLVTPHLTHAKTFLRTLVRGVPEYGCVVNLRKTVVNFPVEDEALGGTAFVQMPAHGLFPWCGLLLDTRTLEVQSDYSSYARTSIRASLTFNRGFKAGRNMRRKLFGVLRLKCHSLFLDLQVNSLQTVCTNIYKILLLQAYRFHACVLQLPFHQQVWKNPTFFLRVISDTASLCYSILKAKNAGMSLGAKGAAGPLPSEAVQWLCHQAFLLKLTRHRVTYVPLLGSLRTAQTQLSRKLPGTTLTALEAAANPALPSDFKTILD
T1 sequence (O60832 whole entry partner): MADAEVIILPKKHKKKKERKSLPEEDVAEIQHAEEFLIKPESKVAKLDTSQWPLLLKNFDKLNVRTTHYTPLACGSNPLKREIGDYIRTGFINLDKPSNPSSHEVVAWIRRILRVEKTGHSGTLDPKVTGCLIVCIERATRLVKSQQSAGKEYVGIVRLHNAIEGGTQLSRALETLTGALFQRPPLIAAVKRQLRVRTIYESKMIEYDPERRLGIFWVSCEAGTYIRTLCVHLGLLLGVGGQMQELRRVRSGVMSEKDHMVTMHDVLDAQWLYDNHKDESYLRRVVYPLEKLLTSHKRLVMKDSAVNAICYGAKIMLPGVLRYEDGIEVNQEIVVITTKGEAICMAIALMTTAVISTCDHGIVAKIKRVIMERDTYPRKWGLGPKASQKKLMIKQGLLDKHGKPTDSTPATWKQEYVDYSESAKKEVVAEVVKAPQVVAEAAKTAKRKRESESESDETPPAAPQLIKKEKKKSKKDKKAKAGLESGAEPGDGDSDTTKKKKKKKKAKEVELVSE
T1 sequence (Q9NPE3 whole entry partner): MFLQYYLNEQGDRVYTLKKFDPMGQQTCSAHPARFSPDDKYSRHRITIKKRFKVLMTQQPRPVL
T1 sequence (Q9NX24 whole entry partner): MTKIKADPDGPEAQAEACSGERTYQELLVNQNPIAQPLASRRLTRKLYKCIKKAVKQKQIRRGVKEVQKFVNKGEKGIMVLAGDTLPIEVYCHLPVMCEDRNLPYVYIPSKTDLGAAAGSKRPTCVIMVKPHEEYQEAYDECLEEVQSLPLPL
T1 sequence (Q9NY12 whole entry partner): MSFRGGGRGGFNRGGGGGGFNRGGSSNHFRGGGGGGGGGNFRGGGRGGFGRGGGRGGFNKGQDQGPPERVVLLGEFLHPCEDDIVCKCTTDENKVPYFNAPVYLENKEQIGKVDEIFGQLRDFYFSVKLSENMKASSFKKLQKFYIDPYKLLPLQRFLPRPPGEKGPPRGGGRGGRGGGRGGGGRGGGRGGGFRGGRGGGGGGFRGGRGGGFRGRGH
T3 sequence (O14746 whole entry): as the sequence (O14746 whole entry) above
T3 sequence (O60832 whole entry partner): as the sequence (O60832 whole entry partner) above
T3 sequence (Q9NPE3 whole entry partner): as the sequence (Q9NPE3 whole entry partner) above
T3 sequence (Q9NX24 whole entry partner): as the sequence (Q9NX24 whole entry partner) above
T3 sequence (Q9NY12 whole entry partner): as the sequence (Q9NY12 whole entry partner) above
T2 sequence (O14746 whole entry): as the sequence (O14746 whole entry) above
T2 sequence (O60832 whole entry partner): as the sequence (O60832 whole entry partner) above
T2 sequence (Q9NPE3 whole entry partner): as the sequence (Q9NPE3 whole entry partner) above
T2 sequence (Q9NX24 whole entry partner): as the sequence (Q9NX24 whole entry partner) above
T2 sequence (Q9NY12 whole entry partner): as the sequence (Q9NY12 whole entry partner) above
T4 sequence (O14746 whole entry): as the sequence (O14746 whole entry) above
T4 sequence (O60832 whole entry partner): as the sequence (O60832 whole entry partner) above
T4 sequence (Q9NPE3 whole entry partner): as the sequence (Q9NPE3 whole entry partner) above
T4 sequence (Q9NX24 whole entry partner): as the sequence (Q9NX24 whole entry partner) above
T4 sequence (Q9NY12 whole entry partner): as the sequence (Q9NY12 whole entry partner) above

Row | SMILES | IC50 (HeLa cell telomerase) [µM] | IC50 (MCF-7) [µM] | IC50 (MDA-231) [µM] | IC50 (BT-20) [µM] | IC50 (DU145) [µM] | IC50 (PC3) [µM] | IC50 (SKBR3) [µM] | IC50 (Raji) [µM] | further results
1 | COc1nc(N)nc2c1ccn2[C@H]1C[C@H](O)[C@@H](CO)O1 [6-methoxy-7-deaza-2′-deoxyguanosine] | 4.9 |  |  |  |  |  |  |  | 
2 | Nc1nc2c(c(=S)[nH]1)CC=N2 [6-thio-7-deaza guanine] |  | 84.2 | > 50 | 258 | > 100 | 120 | 74 | 84.1 | 
3 | CSc1nc(N)nc2c1ccn2C1CC(O)C(CO)O1 (stereo not shown) [Compound 3, 6-Thiomethyl-7-deaza-2′-deoxyguanosine] |  | 88.6 | 281 | 94.3 | > 100 | > 100 | 74 | 84.1 | 
4 | Cn1c(N)nc2c(ccn2[C@H]2C[C@H](O)[C@@H](CO)O2)c1=O [Compound 5, 1-N-methyl-7-deaza-2′-deoxyguanosine] | 159 | 57.5 | > 50 | 60.3 | > 50 | 93.4 |  | 43.4 | 
5 | COc1nc(N)nc2c1ccn2[C@H]1C[C@H](O)[C@@H](COP(=O)(O)OP(=O)(O)OP(=O)(O)O)O1 [Compound 6, 6-Methoxy-7-deaza-2′-deoxyguanosine Triphosphate] | 4.9 |  |  |  |  |  |  |  | 
6 | Cn1c(N)nc2c(ccn2[C@H]2C[C@H](O)[C@@H](COP(=O)(O)OP(=O)(O)OP(=O)(O)O)O2)c1=O [Compound 7, 1-Methyl-7-deaza-2′-deoxyguanosine Triphosphate] | 159 |  |  |  |  |  |  |  | incorporation into telomeric ladders, replacing dGTP (human cancer telomerase; modified assay, 1 mM dTTP, 3.12 μM [α-32P]dATP): incorporation
7 | CSc1nc(N)nc2c1ccn2[C@H]1C[C@H](O)[C@@H](COP(=O)(O)OP(=O)(O)OP(=O)(O)O)O1 [Compound 9, 6-Thiomethyl-7-deaza-2′-deoxyguanosine Triphosphate] |  |  |  |  |  |  |  |  | inhibition in a HeLa cell telomerase assay (HeLa cell telomerase; up to 62.5 μM): no inhibition
8 | Nc1nc2c(ccn2[C@H]2C[C@H](O)[C@@H](COP(=O)(O)OP(=O)(O)OP(=O)(O)O)O2)c(=O)[nH]1 [NA022, 7-Deaza-2′-Deoxyguanosine-5′-Triphosphate] |  |  |  |  |  |  |  |  | remaining activity at 1 µM ([1]; 1.0 μM, read-out: % of Control): 99%; remaining activity at 2.5 µM ([1]; 2.5 μM, read-out: % of Control): 114%; remaining activity at 5 µM ([1]; 5.0 μM, read-out: % of Control): 67%; remaining activity at 7.5 µM ([1]; 7.5 μM, read-out: % of Control): 81%; remaining activity at 10 µM ([1]; 10 μM, read-out: % of Control): 24%; remaining activity at 25 µM ([1]; 25 μM, read-out: % of Control): 27%; remaining activity at 50 µM ([1]; 50 μM, read-out: % of Control): 18%; remaining activity at 75 µM ([1]; 75 μM, read-out: % of Control): 0%; remaining activity at 100 µM ([1]; 100 μM, read-out: % of Control): 0%; IC50 ([1]; [α-32P]dGTP 1.56 μM, TTP and dATP 1 mM): 11 µM; Inhibition of 293 Telomerase, Conventional Assay *dGTP ([1]; up to 2 mM): concentration-dependent inhibition; IC50 ([2]; [α-32P]dATP 3.12 μM, TTP and dGTP 1 mM): 56 µM and < 100 µM; Inhibition of 293 cell telomerase, modified assay ([2]; competing radioactive nucleotide 3.12 μM [α32P]dATP): concentration-dependent inhibition; IC50 (human telomerase; Summary values, assay variant not stated, read-out: IC50): 6.8 µM; times more potent than AZT-TP (human telomerase; from IC50 values): at least 50 times; Substrate of 293 Telomerase (human cancer telomerase; dGTP analog): Is a substrate Produces short telomere Substrate Inhibition; concentration above which there was no activity (human cancer telomerase; dGTP replaced, 1 mM dTTP, 3.12 μM [α-32P]dATP): > 1.5 mM
9 | Nc1nc2c(ccn2[C@H]2C[C@H](O)[C@@H](CO)O2)c(=S)[nH]1 [NA028, 6-Thio-7-Deaza-2′-Deoxyguanosine] |  | 108 | 117 | 84 | > 100 | 209 | 108 | 103 | IC50 [3]: 461 µM; IC50 [4]: 461 µM
